Source: patent US12098217B2, “Fusion peptides as antimicrobial agents” (CENTRE NATIONAL DE LA RECHERCHE SCIENTIFIQUE, priority 2019, dated 2024)
Square brackets hold non-standard residues; d marks the D form. Peptide text beside a SMILES is read from it. Cha = N[C@@H](CC1CCCCC1)C(=O)O

Experiments:
[1] = test system: E. coli infected kenny^drawing 2831 flies; experiment: In vivo survival assay, D. melanogaster infection model; parameters: species or system Drosophila melanogaster; details: 18.4 nl of 1 mM peptide 1 and 24 h after infection; for fold increased survival of infected flies 96 h after injection: E. coli infected kenny flies, versus PBS
Experimental: FIG. 2 concerns the in vivo survival assay using Drosophila melanogaster infection model. Seven-day-old female kenny^C02831 flies were infected by septic injury with a thin tungsten needle previously dipped in an E. coli suspension diluted in PBS and kept at 29° C. 1 and 24 hours after infection, 18.4 nl of peptides (1 mM) diluted in PBS or PBS alone were injected into the flies body cavity. (A) Survival curves. (B) Survival rate after 96 hours. (C) Lethal time 50% (LT50). Data represent means±standard errors of at least 3 independent experiments, each containing three groups of 20 flies. One-Way ANOVA test: *P<0.05, **P<0.01, ***P<0.001. ns: non-significant (P28: Onc112; P30: Onc112-P7; P120: Onc112-P7Scr).
50 ml of E. coli ATCC23754 were grown at 29° C. in LB media up to exponential phase (OD600=0.6-0.8) and centrifuged at 5.000 g for 5 min. The pellet was then diluted in 1 ml of PBS. Immune-deficient kenny^C02831 (Bou Aoun, R., Hetru, C., Troxler, L., Doucet, D., Ferrandon, D., and Matt, N. (2011). Analysis of thioester-containing proteins during the innate immune response of Drosophila melanogaster. J Innate Immun 3, 52-64) flies were raised at 25° C. with 60% humidity on standard cornmeal-agar medium. Seven-day-old female flies were infected by septic injury with a thin tungsten needle previously dipped in an E. coli suspension diluted in PBS and kept at 29° C. 1 and 24 hours after infection, 18.4 nl of peptides (1 mM) diluted in PBS or PBS alone were injected into the fly body cavity (Nanoject II apparatus; Drummond Scientific). Because log-rank analysis can only compare two survival curves at a time in the same experiment, we decided to compute the median lethal time 50 (LT50) and the survival rate at 96 hours to perform One-way ANOVA statistical analysis.

[2] = test system: E. coli 70S ribosome (^Ec70S); experiment: ITC, peptide interaction with E. coli 70S ribosome; format: binding
[3] = molecular target: T1, E. coli SC (^EcSC, beta ring, DnaN) (Escherichia coli, UniProt P0A988); experiment: ITC, peptide interaction with E. coli sliding clamp; format: binding
T1 construct: inferred from the pET15b vector and the Ni-NTA/imidazole purification; made in house; host or cells: E. coli BL21 (DE3) pLys

[4] = ITC 30° C., Table 2B, ^Ec70S, Ni = no specific interaction
[5] = ITC 30° C., Table 2B, ^Ec70S, Ni = no specific interaction, FITC peptides (*) values not well defined
[6] = ITC 25° C., E. coli SC (beta ring)
[7] = ITC 30° C. (303.15 K), Table 2A, ^EcSC, Ni = no specific interaction
[8] = ITC 30° C., Table 2A, ^EcSC, Ni = no specific interaction
[9] = ITC 25° C., E. coli ribosome (70S)
[10] = ITC, 30° C., E. coli ribosome, FITC-Onc112 series

T1 sequence (P0A988 whole entry): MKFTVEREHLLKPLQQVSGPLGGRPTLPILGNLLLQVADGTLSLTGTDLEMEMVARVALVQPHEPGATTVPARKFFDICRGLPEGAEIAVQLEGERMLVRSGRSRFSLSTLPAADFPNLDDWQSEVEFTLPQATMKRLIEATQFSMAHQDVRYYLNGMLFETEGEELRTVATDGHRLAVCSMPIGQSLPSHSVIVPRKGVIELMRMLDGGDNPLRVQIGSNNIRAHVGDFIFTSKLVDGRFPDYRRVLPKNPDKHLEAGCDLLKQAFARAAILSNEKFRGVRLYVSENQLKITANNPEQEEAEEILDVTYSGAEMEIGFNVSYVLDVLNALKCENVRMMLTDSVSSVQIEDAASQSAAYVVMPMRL

SMILES | effect on survival of E. coli infected flies, in words [1] | interaction with ^Ec70S, in words ([2]; ITC 30° C.) | ΔG [3, 6] | ΔH [3, 6] | ΔH [3, 7] | ΔG [3, 8] | −TΔS [3, 8] | fold increased survival of infected flies 96 h after injection [1] | Kd [2, 4] | ΔG [2, 5] | ΔH [2, 5] | −TΔS [2, 5] | interaction with ^EcSC, in words ([3]; ITC 30° C.) | ΔH (kcal/mole) [3, 7] | Kd (nM) [3, 8] | ΔG (kcal/mole) [3, 8] | −TΔS (kcal/mole) [3, 8] | further results
CC(=O)N[C@@H](CCC(N)=O)C(=O)N[C@@H](CC1CCCCC1)C(=O)N[C@@H](CC(=O)O)C(=O)N[C@@H](CC(C)C)C(=O)N[C@@H](Cc1ccccc1)C(=O)O [Peptide P7, Ac-QChaDLF-OH, reference compound] (Ac-Q[Cha]DLF-OH) | has no effect on fly survival | does not specifically bind | -9.2 kcal/mol | -15.4 kcal/mol | -13.7 kcal/mol | -9.00 kcal/mol | 4.71 kcal/mol |  |  |  |  |  |  |  |  |  |  | Kd (nM) [2, 4]: Ni; ΔG (kcal/mole) [2, 5]: Ni; ΔH (kcal/mole) [2, 5]: Ni; −TΔS (kcal/mole) [2, 5]: Ni; ΔH ([3]; ITC 30° C., E.coli SC, specificity comparison with PCNA): -12.05 kcal/mol; Kd ([3]; dissociation constant (Kd) for ^EcSC, at 30° C.): 400 nM; fold increase of affinity for ^EcSC compared to natural SC binding peptide (RQLVLGL) ([3]; versus RQLVLGL from E. coli DNA polymerase IV): 50 fold
CC[C@H](C)[C@H](NC(=O)[C@@H](CCCNC(=N)N)NC(=O)[C@H](CCCNC(=N)N)NC(=O)[C@@H]1CCCN1C(=O)[C@@H]1CCCN1C(=O)[C@H](CCCNC(=N)N)NC(=O)[C@@H]1CCCN1C(=O)[C@H](CCCNC(=N)N)NC(=O)[C@@H]1CCCN1C(=O)[C@H](CC(C)C)NC(=O)[C@H](Cc1ccc(O)cc1)NC(=O)[C@@H]1CCCN1C(=O)[C@@H]1CCCN1C(=O)[C@H](CCCCN)NC(=O)[C@H](CC(=O)O)NC(=O)[C@@H](N)C(C)C)C(=O)N[C@@H](Cc1ccc(O)cc1)C(=O)N[C@@H](CC(N)=O)C(=O)N[C@H](CCCNC(=N)N)C(N)=O [Peptide P28, reference compound] (H-VDKPPYLPRPRPPR[dR]IYN[dR]-NH2; N-terminus assumed) |  |  |  |  |  |  |  | 2.5 fold | 84 nM | -9.82 kcal/mol | -23.9 kcal/mol | 14.0 kcal/mol | do not interact | Ni | Ni | Ni | Ni | Kd [2, 9]: 241 nM; ΔG (kcal/mol) [2, 9]: −9.2 (±0.1) kcal/mol; ΔH (kcal/mol) [2, 9]: −16.2 (±0.3) kcal/mol; affinity for ^Ec70S relative to Py ([2]; ITC 30° C.): fivefold lower; Kd ([2]; ITC 30° C., Table 2B, ^Ec70S, Ni = no specific interaction, listed as Onc112): ~84 nM; Kd [2, 10]: 241 nM; ΔG (kcal/mol) [2, 10]: −9.2 (±0.1) kcal/mol; ΔH (kcal/mol) [2, 10]: −16.2 (±0.3) kcal/mol
CC[C@H](C)[C@H](NC(=O)[C@@H](CCCNC(=N)N)NC(=O)[C@H](CCCNC(=N)N)NC(=O)[C@@H]1CCCN1C(=O)[C@@H]1CCCN1C(=O)[C@H](CCCNC(=N)N)NC(=O)[C@@H]1CCCN1C(=O)[C@H](CCCNC(=N)N)NC(=O)[C@@H]1CCCN1C(=O)[C@H](CC(C)C)NC(=O)[C@H](Cc1ccc(O)cc1)NC(=O)[C@@H]1CCCN1C(=O)[C@@H]1CCCN1C(=O)[C@H](CCCCN)NC(=O)[C@H](CC(=O)O)NC(=O)[C@@H](N)C(C)C)C(=O)N[C@@H](Cc1ccc(O)cc1)C(=O)N[C@@H](CC(N)=O)C(=O)N[C@H](CCCNC(=N)N)C(=O)N[C@@H](CC(N)=O)C(=O)NCC(=O)N1CCC[C@H]1C(=O)N[C@@H](CCCNC(=N)N)C(=O)N[C@@H](CCC(N)=O)C(=O)N[C@@H](CC1CCCCC1)C(=O)N[C@@H](CC(=O)O)C(=O)N[C@@H](CC(C)C)C(=O)N[C@@H](Cc1ccccc1)C(=O)O [Peptide P30] (H-VDKPPYLPRPRPPR[dR]IYN[dR]NGPRQ[Cha]DLF-OH) | two times higher protective effect than its parental peptide P28 | efficiently interact | -9.2 kcal/mol | -14.6 kcal/mol | -13.5 kcal/mol | -9.28 kcal/mol | 4.2 kcal/mol | 4.5 fold | 70.4 nM | -9.92 kcal/mol | -25.6 kcal/mol | 15.7 kcal/mol | as efficiently as P7 alone |  |  |  |  | affinity for the ribosome relative to affinity for SC ([2]; from Table 2, ^Ec70S versus ^EcSC): three times higher affinity
CC[C@H](C)[C@H](NC(=O)[C@@H](CCCNC(=N)N)NC(=O)[C@H](CCCNC(=N)N)NC(=O)[C@@H]1CCCN1C(=O)[C@@H]1CCCN1C(=O)[C@H](CCCNC(=N)N)NC(=O)[C@@H]1CCCN1C(=O)[C@H](CCCNC(=N)N)NC(=O)[C@@H]1CCCN1C(=O)[C@H](CC(C)C)NC(=O)[C@H](Cc1ccc(O)cc1)NC(=O)[C@@H]1CCCN1C(=O)[C@@H]1CCCN1C(=O)[C@H](CCCCN)NC(=O)[C@H](CC(=O)O)NC(=O)[C@@H](N)C(C)C)C(=O)N[C@@H](Cc1ccc(O)cc1)C(=O)N[C@@H](CC(N)=O)C(=O)N[C@H](CCCNC(=N)N)C(=O)N[C@@H](CC(N)=O)C(=O)NCC(=O)N1CCC[C@H]1C(=O)N[C@@H](CCCNC(=N)N)C(=O)N[C@@H](CC1CCCCC1)C(=O)N[C@@H](Cc1ccccc1)C(=O)N[C@@H](CCC(N)=O)C(=O)N[C@@H](CC(C)C)C(=O)N[C@@H](CC(=O)O)C(=O)O [Peptide P120] (H-VDKPPYLPRPRPPR[dR]IYN[dR]NGPR[Cha]FQLD-OH) | does not statistically differ from that measured with P28 |  |  |  |  |  |  |  | 101 nM | -9.85 kcal/mol | -13 kcal/mol | 3.12 kcal/mol | fail to interact | Ni | Ni | Ni | Ni | 
CC[C@H](C)[C@H](NC(=O)[C@@H]1CCCN1C(=O)[C@H](CCCNC(=N)N)NC(=O)[C@@H]1CCCN1C(=O)[C@@H]1CCCN1C(=O)[C@@H](NC(=O)[C@@H]1CCCN1C(=O)[C@H](CCCNC(=N)N)NC(=O)[C@@H]1CCCN1C(=O)[C@H](CC(C)C)NC(=O)[C@H](Cc1ccc(O)cc1)NC(=O)[C@H](CO)NC(=O)CNC(=O)[C@H](CCCCN)NC(=O)[C@H](CC(=O)O)NC(=O)[C@@H](NC(=O)[C@H](CCCCN)NC(=O)c1ccc2c(c1)C(=O)OC21c2ccc(O)cc2Oc2cc(O)ccc21)C(C)C)[C@@H](C)O)C(=O)N[C@@H](Cc1ccc(O)cc1)C(=O)N[C@@H](CC(N)=O)C(=O)N[C@@H](CCCNC(=N)N)C(=O)N[C@@H](CC(N)=O)C(=O)NCC(=O)N1CCC[C@H]1C(=O)N[C@@H](CCCNC(=N)N)C(=O)N[C@@H](CCC(N)=O)C(=O)N[C@@H](CC1CCCCC1)C(=O)N[C@@H](CC(=O)O)C(=O)N[C@@H](CC(C)C)C(=O)N[C@@H](Cc1ccccc1)C(=O)O [Peptide P150] |  |  |  |  | -17.2 kcal/mol | -8.99 kcal/mol | 8.21 kcal/mol |  |  | -6.27 kcal/mol | -13 kcal/mol | 6.7 kcal/mol | similarly interacts |  |  |  |  | Kd ([2]; ITC 30° C., Table 2B, ^Ec70S, FITC peptides (*), values not well defined, weak interaction): > 10000 nM
